Source: US20170159101A1, “DRUG-RESISTANT P97 ATPASE MUTATIONS” (Cleave Biosciences, Inc., priority 2014, published 2017)
Where “and” joins values, the source holds several entries; their conditions need not be identical. Identical values can stand only once.

Assays:
p97 G481A = biological target: T1, p97 G481A (Homo sapiens, UniProt P55072, G481A); experiment: Biochemical ATPase assay, mutant p97 vs WT; conditions: recombinant p97 with G481A mutation
T1 construct: His-tag; made in house; host or cells: E. coli B121[DE3]; (so in the source)
Experimental: (§1) Proteins were expressed in the B121[DE3] strain of E. coli and purified using His-tag mediated nickel purification and gel filtration chromatography.
(§2) ATPase activity of p97 was measured using an ATP regenerating enzymatic system that couples the conversion of phosphoenolpyruvate (PEP) to pyruvate by pyruvate kinase with ADP conversion to ATP. Pyruvate is then converted to lactate by lactate dehydrogenase, which is coupled to the conversion of NADH to NAD^+. The loss of NADH is measured by a decrease in optical absorbance as […] allowing for real-time measurement of ATPase activity. Dose titrations of a test compound were added to the p97 ATPase assay and ATPase activity was monitored. The rate of ATPase activity was fit to four-parameter sigmoidal curve to calculate IC50 of test compound. IC50 values of test compounds for wild type p97 were compared to IC50 values of mutant proteins to identify fold-changes in the potency of test compounds for mutant p97.

p97 D649A = biological target: T2, p97 D649A (Homo sapiens, UniProt P55072, D649A); experiment: Biochemical ATPase assay, mutant p97 vs WT; conditions: recombinant p97 with D649A mutation
T2 construct: His-tag; made in house; host or cells: E. coli B121[DE3]; (so in the source)
Experimental: as §1, §2

p97 Q473P = biological target: T3, p97 Q473P (Homo sapiens, UniProt P55072, Q473P); experiment: Biochemical ATPase assay, mutant p97 vs WT; conditions: recombinant p97 with Q473P mutation
T3 construct: His-tag; made in house; host or cells: E. coli B121[DE3]; (so in the source)
Experimental: as §1, §2

p97 A659T = biological target: T4, p97 A659T (Homo sapiens, UniProt P55072, A659T); experiment: Biochemical ATPase assay, mutant p97 vs WT; conditions: recombinant p97 with A659T mutation
T4 construct: His-tag; made in house; host or cells: E. coli B121[DE3]; (so in the source)
Experimental: as §1, §2

p97 E470D = biological target: T5, p97 E470D (Homo sapiens, UniProt P55072, E470D); experiment: Biochemical ATPase assay, mutant p97 vs WT; conditions: recombinant p97 with E470D mutation
T5 construct: His-tag; made in house; host or cells: E. coli B121[DE3]; (so in the source)
Experimental: as §1, §2

p97 T688A = biological target: T6, p97 T688A (Homo sapiens, UniProt P55072, T688A); experiment: Biochemical ATPase assay, mutant p97 vs WT; conditions: recombinant p97 with T688A mutation
T6 construct: His-tag; made in house; host or cells: E. coli B121[DE3]; (so in the source)
Experimental: as §1, §2

[1] = tested on: DLD-1 resistant cell line clone #87 (p97 S541P); experiment: GI50 fold-change, resistant clone #87 vs parental; format: cell-based, human; conditions: Clone #87, DLD-1, resistance generated with compound 4, T1621T/C / S541P; 72 hrs
Experimental: (§3) Dose titration of test compounds were conducted in Hct116, DLD-1, or LoVo cell lines. In brief, cells were plated in 384-well plates and a selected candidate drug compound was added in a 10-point 2-fold serial dilution.

[2] = tested on: LoVo resistant cell line clone #221 (p97 V474V/A); experiment: GI50 fold-change, resistant clone #221 vs parental; format: cell-based, human; conditions: Clone #221, LoVo, resistance generated with compound 4, T1421C/T / V474V/A; 72 hrs
Experimental: (§4) Dose titration of test compounds were conducted in Hct116, DLD-1, or LoVo cell lines. In brief, cells were plated in 384-well plates and a selected candidate drug compound was added in a 10-point 2-fold serial dilution. […] Hct116 cells were plated at 50,000 cells per 15 cm dish and treated with GI50-GI90 doses of test compound for 2-4 weeks until individual colonies of cells were visible on the plate.

[3] = tested on: DLD-1 resistant cell line clone #61 (p97 I620I/L); experiment: GI50 fold-change, resistant clone #61 vs parental; format: cell-based, human; conditions: Clone #61, DLD-1, resistance generated with compound 4, T1859T/C / I620I/L; 72 hrs
Experimental: as §3

[4] = tested on: Hct116 resistant cell line clone #137 (p97 T475I); experiment: GI50 fold-change, resistant clone #137 vs parental; format: cell-based, human; conditions: Clone #137, Hct116, resistance generated with compound 4, C1424T / T475I; 72 hrs
Experimental: as §3

[5] = tested on: Hct116 resistant cell line clone #47 (p97 E498D); experiment: GI50 fold-change, resistant clone #47 vs parental; format: cell-based, human; conditions: Clone #47, Hct116, resistance generated with compound 4, G1494T / E498D; 72 hrs
Experimental: as §3

[6] = tested on: Hct116 resistant cell line clone #34 (p97 E470D/E); experiment: GI50 fold-change, resistant clone #34 vs parental; format: cell-based, human; conditions: Clone #34, Hct116, resistance generated with compound 4, G1410T/G / E470D/E; 72 hrs
Experimental: as §3

[7] = tested on: DLD-1 resistant cell line clone #83 (p97 N660N/D); experiment: GI50 fold-change, resistant clone #83 vs parental; format: cell-based, human; conditions: Clone #83, DLD-1, resistance generated with compound 4, A1978G/A / N660N/D; 72 hrs
Experimental: as §3

[8] = tested on: Hct116 resistant cell line clone #30 (p97 F516L); experiment: GI50 fold-change, resistant clone #30 vs parental; format: cell-based, human; conditions: Clone #30, Hct116, resistance generated with compound 4, T1546C / F516L; 72 hrs
Experimental: as §3

[9] = tested on: Hct116 resistant cell line clone #45 (p97 F539I); experiment: GI50 fold-change, resistant clone #45 vs parental; format: cell-based, human; conditions: Clone #45, Hct116, resistance generated with compound 4, T1615A / F539I; 72 hrs
Experimental: as §3

[10] = tested on: Hct116 resistant cell line clone #29 (p97 N660K); experiment: GI50 fold-change, resistant clone #29 vs parental; format: cell-based, human; conditions: Clone #29, Hct116, resistance generated with compound 4, C1980A / N660K; 72 hrs
Experimental: as §3

[11] = tested on: Hct116 resistant cell line clone #27 (p97 T688A); experiment: GI50 fold-change, resistant clone #27 vs parental; format: cell-based, human; conditions: Clone #27, Hct116, resistance generated with compound 4, A2062G / T688A; 72 hrs
Experimental: as §3

[12] = tested on: Hct116 resistant cell line clone #33 (p97 P472L); experiment: GI50 fold-change, resistant clone #33 vs parental; format: cell-based, human; conditions: Clone #33, Hct116, resistance generated with compound 4, C1415T / P472L; 72 hrs
Experimental: as §3

[13] = tested on: Hct116 resistant cell line clone #42 (p97 P472A); experiment: GI50 fold-change, resistant clone #42 vs parental; format: cell-based, human; conditions: Clone #42, Hct116, resistance generated with compound 4, C1414G / P472A; 72 hrs
Experimental: as §3

[14] = tested on: Hct116 resistant cell line clone #139 (p97 P472S); experiment: GI50 fold-change, resistant clone #139 vs parental; format: cell-based, human; conditions: Clone #139, Hct116, resistance generated with compound 4, C1414T / P472S; 72 hrs
Experimental: as §3

[15] = tested on: DLD-1 resistant cell line clone #82 (p97 A569A/T); experiment: GI50 fold-change, resistant clone #82 vs parental; format: cell-based, human; conditions: Clone #82, DLD-1, resistance generated with compound 4, G1705G/A / A569A/T; 72 hrs
Experimental: as §3

[16] = tested on: Hct116 resistant cell line clone #180 (p97 A569T); experiment: GI50 fold-change, resistant clone #180 vs parental; format: cell-based, human; conditions: Clone #180, Hct116, resistance generated with compound 4, G1705A / A569T; 72 hrs
Experimental: as §3

[17] = tested on: Hct116 resistant cell line clone #25 (p97 P500T); experiment: GI50 fold-change, resistant clone #25 vs parental; format: cell-based, human; conditions: Clone #25, Hct116, resistance generated with compound 4, C1498A / P500T; 72 hrs
Experimental: as §3

[18] = tested on: Hct116 resistant cell line clone #207 (p97 V485D); experiment: GI50 fold-change, resistant clone #207 vs parental; format: cell-based, human; conditions: Clone #207, Hct116, resistance generated with compound 4, T1454A / V485D; 72 hrs
Experimental: as §3

[19] = tested on: Hct116 resistant cell line clone #31 (p97 C535Y); experiment: GI50 fold-change, resistant clone #31 vs parental; format: cell-based, human; conditions: Clone #31, Hct116, resistance generated with compound 4, G1604A / C535Y; 72 hrs
Experimental: as §3

[20] = tested on: Hct116 resistant cell line clone #117 (p97 L482I); experiment: GI50 fold-change, resistant clone #117 vs parental; format: cell-based, human; conditions: Clone #117, Hct116, resistance generated with compound 4, C1444A / L482I; 72 hrs
Experimental: as §3

[21] = tested on: Hct116 resistant cell line clone #90 (p97 Q473P); experiment: GI50 fold-change, resistant clone #90 vs parental; format: cell-based, human; conditions: Clone #90, Hct116, resistance generated with compound 4, A1418C / Q473P; 72 hrs
Experimental: as §3

[22] = tested on: Hct116 resistant cell line clone #22 (p97 N660D); experiment: GI50 fold-change, resistant clone #22 vs parental; format: cell-based, human; conditions: Clone #22, Hct116, resistance generated with compound 4, A1978G / N660D; 72 hrs
Experimental: as §3

[23] = tested on: Hct116 resistant cell line clone #152 (p97 T688I); experiment: GI50 fold-change, resistant clone #152 vs parental; format: cell-based, human; conditions: Clone #152, Hct116, resistance generated with compound 4, C2063T / T688I, 72 hrs
Experimental: as §4

[24] = tested on: DLD-1 resistant cell line clone #58 (p97 D649D/N); experiment: GI50 fold-change, resistant clone #58 vs parental; format: cell-based, human; conditions: Clone #58, DLD-1, resistance generated with compound 4, G1945G/A / D649D/N; 72 hrs
Experimental: as §3

[25] = tested on: DLD-1 resistant cell line clone #64 (p97 N660N/S); experiment: GI50 fold-change, resistant clone #64 vs parental; format: cell-based, human; conditions: Clone #64, DLD-1, resistance generated with compound 4, A1979G/A / N660N/S; 72 hrs
Experimental: as §3

[26] = tested on: Hct116 resistant cell line clone #108 (p97 P646T); experiment: GI50 fold-change, resistant clone #108 vs parental; format: cell-based, human; conditions: Clone #108, Hct116, resistance generated with compound 4, C1936A / P646T; 72 hrs
Experimental: as §4

T2 sequence (P55072 whole entry D649A): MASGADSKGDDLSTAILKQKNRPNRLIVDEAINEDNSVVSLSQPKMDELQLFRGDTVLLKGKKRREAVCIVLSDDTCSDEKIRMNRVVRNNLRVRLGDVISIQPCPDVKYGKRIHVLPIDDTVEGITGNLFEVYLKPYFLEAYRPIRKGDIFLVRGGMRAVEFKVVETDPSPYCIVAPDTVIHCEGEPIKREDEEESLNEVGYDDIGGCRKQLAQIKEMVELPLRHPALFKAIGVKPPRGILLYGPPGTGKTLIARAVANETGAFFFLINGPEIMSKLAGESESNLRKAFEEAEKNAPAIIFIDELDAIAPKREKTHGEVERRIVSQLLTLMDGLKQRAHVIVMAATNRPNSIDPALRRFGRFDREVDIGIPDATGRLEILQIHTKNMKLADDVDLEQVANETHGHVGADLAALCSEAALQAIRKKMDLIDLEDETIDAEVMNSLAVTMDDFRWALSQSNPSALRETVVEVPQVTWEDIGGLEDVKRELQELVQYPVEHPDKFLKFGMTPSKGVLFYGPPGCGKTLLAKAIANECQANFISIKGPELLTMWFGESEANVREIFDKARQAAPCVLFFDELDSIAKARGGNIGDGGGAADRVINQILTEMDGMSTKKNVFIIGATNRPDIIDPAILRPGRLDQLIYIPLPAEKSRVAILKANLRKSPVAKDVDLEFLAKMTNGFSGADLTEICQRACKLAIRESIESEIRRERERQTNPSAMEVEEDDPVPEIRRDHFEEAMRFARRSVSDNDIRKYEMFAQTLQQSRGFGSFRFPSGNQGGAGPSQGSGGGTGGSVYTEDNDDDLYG
T1 sequence (P55072 whole entry G481A): as the sequence (P55072 whole entry D649A) above, with G481A, A649D counted along it
T4 sequence (P55072 whole entry A659T): as the sequence (P55072 whole entry D649A) above, with A649D, A659T counted along it
T3 sequence (P55072 whole entry Q473P): as the sequence (P55072 whole entry D649A) above, with Q473P, A649D counted along it
T6 sequence (P55072 whole entry T688A): as the sequence (P55072 whole entry D649A) above, with A649D, T688A counted along it
T5 sequence (P55072 whole entry E470D): as the sequence (P55072 whole entry D649A) above, with E470D, A649D counted along it

COc1nc2c(C(N)=O)cccc2n1-c1nc2c(c(NCc3ccccc3)n1)CCCC2 [Compound 5, 1-[4-(benzylamino)-5,6,7,8-tetrahydroquinazolin-2-yl]-2-methoxy-1H-1,3-benzodiazole-4-carboxamide]
Fold Change in IC50 compared to WT Protein (p97 G481A): 4.1 fold | Fold Change in IC50 compared to WT Protein (p97 D649A): 67.0 fold | Fold Change in IC50 compared to WT Protein (p97 Q473P): 0.3 fold | Fold Change in IC50 compared to WT Protein (p97 A659T): 110.0 fold | Fold Change in IC50 compared to WT Protein (p97 E470D): 15.4 fold | Fold Change in IC50 compared to WT Protein (p97 T688A): 363.0 fold

Cc1cc2c(CN)cccc2n1-c1nc2c(c(NCc3ccccc3)n1)CCCC2 [Compound 6, 2-[4-(aminomethyl)-2-methyl-1H-indol-1-yl]-N-benzyl-5,6,7,8-tetrahydroquinazolin-4-amine]
Fold Change in GI50 Compared to Parental Cell Line [1]: 0.9 fold | Fold Change in GI50 Compared to Parental Cell Line [2]: 2.2 fold | Fold Change in GI50 Compared to Parental Cell Line [3]: 3.3 fold | Fold Change in GI50 Compared to Parental Cell Line [4]: 2.8 fold | Fold Change in GI50 Compared to Parental Cell Line [5]: 1.8 fold | Fold Change in GI50 Compared to Parental Cell Line [6]: 2.7 fold | Fold Change in GI50 Compared to Parental Cell Line [7]: 1.3 fold | Fold Change in GI50 Compared to Parental Cell Line [8]: 4.1 fold | Fold Change in GI50 Compared to Parental Cell Line [9]: 3.4 fold | Fold Change in GI50 Compared to Parental Cell Line [10]: 3.8 fold | Fold Change in GI50 Compared to Parental Cell Line [11]: 2.3 fold | Fold Change in GI50 Compared to Parental Cell Line [12]: 5.3 fold | Fold Change in GI50 Compared to Parental Cell Line [13]: 3.5 fold | Fold Change in GI50 Compared to Parental Cell Line [14]: 3.5 fold | Fold Change in GI50 Compared to Parental Cell Line [15]: 4.5 fold | Fold Change in GI50 Compared to Parental Cell Line [16]: 3.4 fold | Fold Change in GI50 Compared to Parental Cell Line [17]: 1.9 fold | Fold Change in GI50 Compared to Parental Cell Line [18]: 2.7 fold | Fold Change in GI50 Compared to Parental Cell Line [19]: 3.3 fold | Fold Change in GI50 Compared to Parental Cell Line [20]: 2.3 fold | Fold Change in GI50 Compared to Parental Cell Line [21]: 2.1 fold | Fold Change in GI50 Compared to Parental Cell Line [22]: 1.8 fold | Fold Change in GI50 Compared to Parental Cell Line [23]: 1.4 fold | Fold Change in GI50 Compared to Parental Cell Line ([23]; listed as compound 6): 1.4 fold and 1.42 fold | Fold Change in GI50 Compared to Parental Cell Line [24]: 2.0 fold | Fold Change in GI50 Compared to Parental Cell Line [25]: 2.7 fold | Fold Change in GI50 Compared to Parental Cell Line [26]: 1.6 fold
